From US20110055943A1, “NOVEL THERAPEUTIC TARGETS IN INFLAMMATORY BOWEL DISEASE” (SALIX PHARMACEUTICALS, LTD., priority 2007, published 2011)

Columns and labels:
[1] = Intestinal tract distribution of RIF and RIFax in mice (intestinal contents, LC-MS/MS); assay type: in vivo; details: mice; for intestinal tract concentration compared with RIF: oral treatment
Procedure: The maximum concentration in serum (Cmax) was obtained from the original data. […] Intestinal contents were weighted, and homogenized in methanol (100 mg/ml). The homogenate was centrifuged at 14,000 rpm for 10 min at 4° C.
The mass spectrometer was operated in the turbo ion spray mode with positive ion detection. The turbo ion spray temperature was maintained at 300° C., and a voltage of 4.8 kV was applied to the sprayer needle. N2 was used as the turbo ion spray and nebulizing gas.

[2] = test system: PXR target genes (CYP3A11, GSTA1, MRP2, OATP2); test: qPCR analysis of PXR target genes in WT mice; assay type: in vivo, wild-type (WT) mice
human PXR = biological target: T1, human PXR (Homo sapiens, UniProt O75469); test: Cell-based reporter assay, DPX2 (hepG2) cell line, luciferase; details: for increase in luciferase activity vs DMSO control: 24 h, DPX2 cells
T1 construct: host or cells: DPX2 (HepG2 derivative)
T1 sequence (O75469 1-434): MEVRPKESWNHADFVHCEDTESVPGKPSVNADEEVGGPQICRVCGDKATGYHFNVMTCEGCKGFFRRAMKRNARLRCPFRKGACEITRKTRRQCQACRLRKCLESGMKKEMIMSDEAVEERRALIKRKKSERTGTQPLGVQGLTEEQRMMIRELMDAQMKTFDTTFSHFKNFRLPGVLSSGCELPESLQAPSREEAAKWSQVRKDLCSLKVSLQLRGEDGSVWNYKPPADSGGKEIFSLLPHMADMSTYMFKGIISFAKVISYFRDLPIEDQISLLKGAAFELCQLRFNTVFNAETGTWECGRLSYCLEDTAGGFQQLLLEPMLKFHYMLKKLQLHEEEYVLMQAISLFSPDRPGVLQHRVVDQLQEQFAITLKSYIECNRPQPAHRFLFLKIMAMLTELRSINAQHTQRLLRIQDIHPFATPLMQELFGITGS
Procedure: A hepG2 cell line (DPX2) with stable expression of recombinant human PXR and a PXR-response element cloned in a luciferase vector was obtained from Puracyp Inc. (Carlsbad, Calif.). […] The cells were seeded according to the distributor's instruction. […] For cell-based reporter assay of nuclear receptors CAR, PPARα, PPARγ, and FXR, HCT116 cells were plated on 24-well plates (5×10^4 cells/well, cultured in DMEM containing 10% FBS), and transfected with the various expression vectors using Fugene transfection reagent (Roche, Indianapolis, Ind.). […] The mouse FXR vector was provided by Dr Christopher J. Sinal. […] A standard dual luciferase assay was used and normalized to a cotransfected control reporter (Promega, Madison, Wis.). Each in vitro assay was repeated at least three times.

FXR = biological target: T2, FXR (Mus musculus, UniProt Q60641); test: Cell-based reporter assay, transfected HCT116 cells, dual luciferase; details: 10 μM, 24 h
T2 construct: expressed in transfected cells; host or cells: HCT116
T2 sequence (Q60641 1-488): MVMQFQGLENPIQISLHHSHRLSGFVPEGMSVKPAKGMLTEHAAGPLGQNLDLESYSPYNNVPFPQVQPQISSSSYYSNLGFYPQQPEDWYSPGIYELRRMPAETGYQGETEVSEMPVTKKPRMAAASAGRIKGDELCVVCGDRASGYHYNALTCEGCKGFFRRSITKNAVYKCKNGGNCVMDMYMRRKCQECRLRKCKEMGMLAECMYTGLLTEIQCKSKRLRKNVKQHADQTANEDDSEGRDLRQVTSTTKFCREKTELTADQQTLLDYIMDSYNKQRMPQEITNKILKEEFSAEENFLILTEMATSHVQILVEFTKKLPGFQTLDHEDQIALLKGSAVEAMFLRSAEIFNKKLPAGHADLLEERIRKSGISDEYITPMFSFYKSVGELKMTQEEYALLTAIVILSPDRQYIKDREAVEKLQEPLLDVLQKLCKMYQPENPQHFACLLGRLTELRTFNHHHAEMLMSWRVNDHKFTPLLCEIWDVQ
Procedure: A hepG2 cell line (DPX2) with stable expression of recombinant human PXR and a PXR-response element cloned in a luciferase vector was obtained from Puracyp Inc. (Carlsbad, Calif.). The construction and validation of the cell lines were reported previously (Yueh et al., 2005). The cells were seeded according to the distributor's instruction. […] The activation of PXR was determined by measuring the firefly luciferase activity 24 h later, followed by normalization of luciferase activity by protein concentrations. For cell-based reporter assay of nuclear receptors CAR, PPARα, PPARγ, and FXR, HCT116 cells were plated on 24-well plates (5×10^4 cells/well, cultured in DMEM containing 10% FBS), and transfected with the various expression vectors using Fugene transfection reagent (Roche, Indianapolis, Ind.). The mouse PPAR and CAR vectors were described in previous reports (Kliewer et al., 1992; Swales et al., 2005). The mouse FXR vector was provided by Dr Christopher J. Sinal. […] TCPOBOP (250 nM), Wy-14,643 (10 μM), rosiglitazone (10 μM), and GW4064 (25 μM) were used as positive controls respectively for mouse CAR, PPARα, PPARγ, and FXR. A standard dual luciferase assay was used and normalized to a cotransfected control reporter (Promega, Madison, Wis.). Each in vitro assay was repeated at least three times.

CYP3A = test: Pharmacokinetics of MDZ in hPXR mice pretreated with RIFax; details: hPXR mice, RIFax 10 mg/kg/day 3 days, MDZ 2.5 mg/kg oral
Procedure: Blood samples were collected from suborbital veins using heparinized tubes at pre-dose, 5, 10, 20, 30, 60, and 90 min after administration of MDZ. Serum was separated by centrifugation at 8,000 g for 10 min. For MDZ and 1′-OH-MDZ extraction, 50 μl of serum was mixed with 150 μl of phosphate-buffered saline, 200 μl of ethyl acetate, and 200 μl of methyl t-butyl ether. The mixture was centrifuged at 3,000 rpm for 5 min at 4° C. The organic layer was then transferred to a new tube, dried with N2, and reconstituted in 100 μl of 70% aqueous methanol and 30% H2O containing 0.1% formic acid. […] Pharmacokinetic parameters for MDZ and 1′-OH-MDZ were estimated from the plasma concentration-time data by a non-compartmental approach using WinNonlin (Pharsight, Mountain View, Calif.). The area under the serum concentration-time curve (AUC0-90 min) was calculated by the trapezoidal rule. The maximum concentration in serum (Cmax) and its corresponding time (Tmax) were obtained from the original data.

[3] = WT mice, small intestine, 25 mg/kg/day p.o. 3 days

## COC1/C=C/OC2(C)Oc3c(C)c(O)c4c(O)c(c5c(nc6cc(C)ccn65)c4c3C2=O)NC(=O)/C(C)=C\C=C\C(C)C(O)C(C)C(O)C(C)C(OC(C)=O)C1C (centres unmarked) [RIFax, 4-Deoxy-4′-methylpyrido[1′,2′-1,2]imidazo[5,4-c]rifamycin SV]
[1]; 10 mg/kg single dose p.o.
  concentration in the intestinal tract (intestinal content): up to 150 ug/g
  concentration in the intestinal tract (intestinal content), molar: about 200 μM
[1]
  intestinal tract concentration compared with RIF: significantly higher
[1]; listed as Rifaximin
  intestinal tract concentration compared with RIF: highly concentrated
[1]; single oral dose 10 mg/kg
  concentration in the small intestine (content): ~160 µg/g
  time the small intestine concentration lasted following administration: 9 h
[2]; [3]
  Intestinal CYP3A11 expression: inhibited
  Intestinal GSTA1 mRNA increase: 87%
  Intestinal OATP2 mRNA: no significant induction
  intestinal MRP2 mRNA: significantly suppressed
[2]; wild-type mice, liver, oral treatment
  effect on hepatic PXR target genes: no significant effect
Human PXR; 1 μM
  increase in luciferase activity vs DMSO control: 2.1 fold
Human PXR; 10 μM
  increase in luciferase activity vs DMSO control: 6.7 fold
Human PXR; 100 μM
  increase in luciferase activity vs DMSO control: 25.2 fold
Human PXR; DPX2 cell line, read-out: EC50 for activation of hPXR
  EC50: ~20 µM
FXR
  change in luciferase activity in the presence of FXR: no significant change
CYP3A
  Tmax of 1′-OH-MDZ in RIFax pretreated mice vs control group: significantly shorter
